In patent publication US10004225B2, “Wearable insect repelling patch” (S. C. Johnson & Son, Inc., priority 2005, dated 2018):

Key:
mosquitoes [1] = assay: Additional field tests with FIG. 4 type patches, wrist bands and ankle bands; type: in vivo; details: 7.5 cm×7.5 cm patches, 10 mg each, two or four patches, one or two wrist bands, five to sixty minute monitoring, heavy mosquito populations
Protocol: We then tried some additional field tests with respect to mosquitoes using FIG. 4 type patches. Patches were made be adhering a multi-layer non-woven cloth made of rayon, polyester, polypropylene, and polyethylene fibers 30 to a multi-laminate foil film 34 with strips of 3M double facing tape 32. The cloth was 7.5 cm×7.5 cm in top view, and the dosing included for each patch 10 mg of metofluthrin dissolved in 2.53 ml of acetone.
We then sealed the patches in towelette pouches for storage prior to use. When the patch was to be used, we opened the pouch by tearing it open, removed the patch, peeled off the multi-laminate foil, and attached the cloth/tape structure to the specified locations.
We tested the use of two patches, the use of four patches, the use of one or two wrist bands, and the use of one or two ankle bands. All achieved over 50% repellency throughout a five minute to sixty minute monitoring under conditions of heavy mosquito populations.

mosquitoes [2] = assay: Three-chamber test apparatus, mosquito personal area repellency of hung patches with human test subject as attractant; type: in vivo; details: Example 1, 2 patches 103 cm^2, 60 mg each; for % Repellency: no adhesive
Protocol: Various patch sizes and insect repellents were tested, initially using the test apparatus shown schematically generally at 20 in FIG. 3. The test apparatus 20 has a sample chamber 22, connected to a mosquito chamber 24, which is connected via an opening 34 to a remote chamber 26. Each chamber is generally cubical, with a volume of about 0.43 m^3.
The sample chamber 22 has an open end 28 on the side remote from the mosquito chamber 24. A screen 30 divides the sample chamber 22 from the mosquito chamber 24. The opening 34 between the mosquito chamber 24 and the remote chamber 26 is slightly constricted by side walls 32. However, the opening 34 is still sufficiently large that mosquitoes can freely move between the mosquito and remote chambers 24 and 26.
Four, screened, low-flow exhaust ports 36 are located in the side walls 32, the exhaust ports facing the open end 28. Air is drawn through the exhaust ports 36 and exhausted from the mosquito chamber 24 at a rate sufficient to draw air in through the open end 28 but insufficient to affect the flying of mosquitoes placed in the mosquito chamber 24 or to disturb the air in the remote chamber 26.
For each test, a human test subject 38 is placed at the open end 28 of the sample chamber 22, the test subject's breath providing the warmth, CO2, and moisture known to be human attractants for mosquitoes. The exhaust ports 36 pull air, along with those attractants, though the open end 28 and on through the sample chamber 22, the screen 30, and the mosquito chamber 24. The attractants thus leave the apparatus 20 without entering the remote chamber 26.
Mosquitoes are placed in the mosquito chamber 24 and are quickly attracted to the screen 30 by the human attractants. The open end 28 is large enough to expose primarily the upper torso and head of the test subject. Two patches 10 are hung one foot into the sample chamber 22 and approximately 20 cm down from the chamber's top (except as was done otherwise in particular experiments, as is noted, below).
Percent repellency was calculated as the percent of mosquitoes that had been initially introduced into the mosquito chamber 24 (most of which were attracted to the screen 30 before the patches 10 were put in place), that then were repelled from the screen when the patches were introduced. The “repellency” indicated in the table, below, for time zero reflects the mosquitoes that were not yet attracted to the screen 30 by the time the test patches 10 were introduced. […] The patches 10 used were 103 cm^2 in size, with no adhesive layer 18.
The patch material was a non-woven cloth material comprised of rayon, polyester, and polypropylene (as described in published U.S. Patent Application US20040082248), dosed with 60 mg of the active ingredient. The controls used no patches.
The same test apparatus 20 was used in the same way as described in Example 1, with the following changes. When a test included four patches 10, two were hung as in Example 1, and two were hung about 13 cm from the bottom of the chamber to simulate patches worn on the shoulders and at the waist of a user. In one test, as indicated in the table, below, the patches 10 were attached to the test subject's chest. Each individual patch was treated with the amount of insect repellent indicated. Time is shown in minutes.

SMILES: CC=C[C@@H]1[C@@H](C(=O)OCc2c(F)c(F)c(COC)c(F)c2F)C1(C)C (racemic) [metofluthrin, 2,3,5,6-tetrafluoro-4-methoxymethylbenzyl (EZ)-(1RS,3RS)-2,2-dimethyl-3-(prop-1-enyl)-cyclopropanecarboxylate]
- repellency (mosquitoes [1]): over 50%
- personal area repellency (result in words) (mosquitoes [2]): successful personal area repellency
- % Repellency (mosquitoes [2]; 5 min): 72%
- % Repellency (mosquitoes [2]; 10 min): 92%
- % Repellency (mosquitoes [2]; 15 min): 96%
- % Repellency (mosquitoes [2]; 20 min): 98%
- % Repellency (mosquitoes [2]; time 0 min (mosquitoes not yet attracted to screen)): 10%
